{"source": "paper PMC9313812", "about": "“The Pseudo‐Natural Product Rhonin Targets RHOGDI” (Angewandte Chemie (International Ed. in English), 2022)", "assay": "Parallel artificial membrane permeability assay (PAMPA)", "type": "in vitro ADME", "settings": "initial 500 µM in donor, 20 h", "experimental": "500 µM final compound concentrations. The kinetic solubility of the compound solutions in HEPES buffer pH 7.4 were then compared to a solution in the organic solvent (ACN) after vigorous shaking on an orbital shaker at room temperature for 90 min. Therefore, the spectrum 250 -500 nm was recorded using the Spectramax plate reader. Precipitated material was removed by filtration prior to analysis. Each sample was tested in triplicate.\nAqueous solubility was also determined using a turbidimetric assay. DMSO stock solutions were diluted in DMSO to produce a range of concentrations. These were then added to PBS buffer pH7.4 (final test compound concentrations: 1 µM, 3 µM, 10 µM, 30 µM, 100 µM, 1% final DMSO concentration, 7 replicates per concentration). After 2 h incubation period at room temperature, the absorbance at 620 nm was read for each concentration and each replicate using a Spectramax plate reader.\nPermeability through artificial membranes assay (PAMPA)\nPermeability through artificial membranes (phospholipid/cholesterol in dodecane) was assessed at an initial compound concentration of 500 µM in the donor compartment. Absorption of the receiver wells was determined by spectrophotometrical measurement using a Spectramax absorbance plate reader after 20 h of incubation. Permeation was calculated by normalization of compound flux across a blank filter. […]"}
{"smiles": "COC(=O)C1(C(CC(=O)c2cccnc2)c2ccccc2)N=C(c2ccc(Br)cc2)C2C(=O)N(C)C(=O)C21", "note": "(stereo not shown) [7l]", "values": [{"measurement": "permeability, flux in PAMPA", "value": 41.1, "unit": "%"}]}
